The assay deals with T1, hTSHR (Homo sapiens, UniProt P16473).
T1 construct: expressed in transfected cells
Kind of assay: hTSHR TR-FRET cAMP Assay (inhibition of M22-stimulated cAMP production). The class given is cell-based. The conditions noted are these: Expi293F Inducible cells stably expressing hTSHR; cAMP HTRF; stimulated with EC80 of anti-TSHR antibody M22; 15 min compound preincubation, 30 min at 37° C.; read-out: Activity (IC50 bins). As for the experimental part: Assays were performed using Expi293F Inducible cells (Invitrogen) stably expressing hTSHR via a pcZeo TetO DNA plasmid. Cell lines were maintained in suspension in Expi293 Expression Medium (ThermoFisher Scientific) supplemented with 10 µg/mL Blasticidin and 10 μg/mL Zeocin and incubated at 37° C., 8% CO2, with shaking. hTSHR cells were incubated overnight at 32° C., 5% C02, with shaking, but […] Doxycycline. Assay-ready aliquots were prepared by harvesting each cell type separately 24-hours post-induction. Cells were pelleted at 4° C., resuspended in Expi293 Expression media+10% DMSO, aliquoted, and kept frozen at −80° C. until ready for use.
For the assay, concentration-response curves of test and reference compounds were added to 384-well plates using an Echo 650 liquid handler (Beckman Coulter) and backfilled with DMSO to a final concentration of 0.5%. cAMP was measured using the cisbio cAMP Gs dynamic HTRF kit (PerkinElmer) according to manufacturer instructions. Aliquots of frozen hTSHR cells were quickly thawed and washed with phosphate-buffered saline (Sigma-Aldrich) to remove media and DMSO. The cells were resuspended in kit-supplied Stimulation Buffer at 0.8×10^6 cells/mL. 7.5 μL of the hTSHR cell dilution were added to each well of the assay plate and incubated with the compounds for 15 minutes in a 37 C, 0% CO2 incubator. 2.5 μL of Vehicle control or an EC80 concentration of recombinant human anti-TSHR antibody (M22, Creative Biolabs) was added to stimulate cAMP production. Cells were incubated with for 30 minutes at 37° C., 0% CO2. Following this incubation, the cells were lysed and accumulated cAMP was detected through the addition of kit-supplied lysis buffer containing d2-reagent and Eu-cryptate antibody. The HTRF signal was quantified using a BMG Clariostar plate reader optimized for HTRF assays. The HTRF ratio was determined by dividing the signal output at […] by that at 620 nm. Data were normalized to the signal produced by the EC80 concentration of either M22 or FSH (0% inhibition) and vehicle (no agonist, 100% inhibition).
(In TR-FRET formats the signal depends on donor and acceptor labels being close together.)

Each structure is given as a SMILES string.

The text below walks through data of patent publication US20260365628A1, “SUBSTITUTED 3,4-DIHYDROQUINOLINONE INHIBITORS OF TSHR” (Septerna, Inc., priority 2022, published 2026).

T1 sequence (P16473 21-764): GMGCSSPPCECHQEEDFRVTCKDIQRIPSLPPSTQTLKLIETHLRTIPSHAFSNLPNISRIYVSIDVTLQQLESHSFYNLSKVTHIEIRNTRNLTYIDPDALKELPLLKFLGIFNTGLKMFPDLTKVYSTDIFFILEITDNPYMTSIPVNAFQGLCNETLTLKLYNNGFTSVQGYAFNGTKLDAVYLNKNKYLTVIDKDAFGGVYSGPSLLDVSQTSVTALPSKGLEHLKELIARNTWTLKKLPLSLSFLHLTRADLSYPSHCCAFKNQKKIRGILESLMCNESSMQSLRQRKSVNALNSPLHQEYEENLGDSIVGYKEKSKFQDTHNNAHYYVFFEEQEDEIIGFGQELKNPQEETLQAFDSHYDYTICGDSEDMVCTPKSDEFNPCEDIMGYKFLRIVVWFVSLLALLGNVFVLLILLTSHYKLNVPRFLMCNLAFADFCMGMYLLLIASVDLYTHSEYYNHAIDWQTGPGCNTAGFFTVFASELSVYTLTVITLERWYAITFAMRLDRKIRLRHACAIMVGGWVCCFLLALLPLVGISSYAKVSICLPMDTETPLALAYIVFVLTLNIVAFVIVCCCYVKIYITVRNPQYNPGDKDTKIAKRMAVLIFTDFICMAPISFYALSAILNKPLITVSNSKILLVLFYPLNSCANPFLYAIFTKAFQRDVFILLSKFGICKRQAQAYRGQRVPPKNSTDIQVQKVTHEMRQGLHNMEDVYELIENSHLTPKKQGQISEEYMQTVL

For `CC(C)(C)NC(=O)Nc1ccc2c(c1)CCC(=O)N2Cc1cc(Cl)ccc1Cl` [Example 24, 3-tert-butyl-1-{1-[(2,5-dichlorophenyl)methyl]-2-oxo-3,4-dihydroquinolin-6-yl}urea], the 50% inhibitory concentration (IC50) is below 100 nM.
On to `CC(C)(C)NC(=O)Nc1ccc2c(c1)CCC(=O)N2Cc1cc(Cl)cc(Cl)c1` [Example 25, 1-(tert-butyl)-3-(1-(3,5-dichlorobenzyl)-2-oxo-1,2,3,4-tetrahydroquinolin-6-yl) urea], for which the IC50 is below 100 nM.
Under `CC(C)(C)NC(=O)Nc1ccc2c(c1)CCC(=O)N2Cc1cccc(F)c1` [Example 26, 1-(tert-butyl)-3-(1-(3-fluorobenzyl)-2-oxo-1,2,3,4-tetrahydroquinolin-6-yl)urea] stands below 100 nM; under `CC(C)(C)NC(=O)Nc1ccc2c(c1)CCC(=O)N2Cc1ccc(F)cc1` [Example 27, 1-(tert-butyl)-3-(1-(4-fluorobenzyl)-2-oxo-1,2,3,4-tetrahydroquinolin-6-yl)urea], 100 to 1000 nM.
In the case of `CCC(c1ccccc1)N1C(=O)CCc2cc(NC(=O)NC(C)(C)C)ccc21` (stereo not drawn) [Example 28, 1-(tert-butyl)-3-(2-oxo-1-(1-phenylpropyl)-1,2,3,4-tetrahydroquinolin-6-yl)urea], the IC50 was above 1000 nM.
Under `CC(C)(C)NC(=O)Nc1ccc2c(c1)CC(C)(C)C(=O)N2Cc1ccccc1` [Example 29, 1-(1-benzyl-3,3-dimethyl-2-oxo-1,2,3,4-tetrahydroquinolin-6-yl)-3-(tert-butyl)urea] stands above 1000 nM; under `CC(C)(C)NC(=O)Nc1ccc2c(c1)CCC(=O)N2C(CO)c1ccccc1` (stereo not drawn) [Example 30, 1-(tert-butyl)-3-(1-(2-hydroxy-1-phenylethyl)-2-oxo-1,2,3,4-tetrahydroquinolin-6-yl)urea], above 1000 nM; under `CC(C)(C)NC(=O)Nc1ccc2c(c1)CC(=O)N2Cc1ccccc1` [Example 31, 1-(1-benzyl-2-oxo-3H-indol-5-yl)-3-tert-butylurea], above 1000 nM.
For `CC(C)C1Cc2cc(NC(=O)NC(C)(C)C)ccc2N(Cc2ccccc2)C1=O` (stereo not drawn) [Example 32, 1-(1-benzyl-3-isopropyl-2-oxo-1,2,3,4-tetrahydroquinolin-6-yl)-3-(tert-butyl)urea], the IC50 was above 1000 nM.
On to `CC(C)(C)NC(=O)Nc1ccc2c(c1)OCC(=O)N2Cc1cccc(Cl)c1` [Example 33, 3-tert-butyl-1-{4-[(3-chlorophenyl)methyl]-3-oxo-2H-1,4-benzoxazin-7-yl}urea], for which the IC50 is below 100 nM.
In the case of `C[C@H](c1ccccc1)N1C(=O)COc2cc(NC(=O)NC(C)(C)C)ccc21` [Example 34, (R)-1-(tert-butyl)-3-(3-oxo-4-(1-phenylethyl)-3,4-dihydro-2H-benzo[b][1,4]oxazin-7-yl)urea], the half-maximal inhibitory concentration (IC50) fell in the range of 100 to 1000 nM.
Under `C[C@@H](c1ccccc1)N1C(=O)COc2cc(NC(=O)NC(C)(C)C)ccc21` [Example 35, (S)-1-(tert-butyl)-3-(3-oxo-4-(1-phenylethyl)-3,4-dihydro-2H-benzo[b][1,4]oxazin-7-yl)urea] stands below 100 nM; under `C[C@H](c1cccc(Cl)c1)N1C(=O)COc2cc(NC(=O)NC(C)(C)C)ccc21` [Example 36, (R)-1-(tert-butyl)-3-(4-(1-(3-chlorophenyl)ethyl)-3-oxo-3,4-dihydro-2H-benzo[b][1,4]oxazin-7-yl)urea], above 1000 nM; under `C[C@@H](c1cccc(Cl)c1)N1C(=O)COc2cc(NC(=O)NC(C)(C)C)ccc21` [Example 37, (S)-1-(tert-butyl)-3-(4-(1-(3-chlorophenyl)ethyl)-3-oxo-3,4-dihydro-2H-benzo[b][1,4]oxazin-7-yl)urea], below 100 nM.
For `CC(C)(C)NC(=O)Nc1ccc2c(c1)oc(=O)n2Cc1ccccc1` [Example 38, 1-(3-benzyl-2-oxo-2,3-dihydrobenzo[d]oxazol-6-yl)-3-(tert-butyl)urea] the value was above 1000 nM; for `CC(C)(C)NC(=O)Nc1ccc2c(c1)CCC(=O)N2Cc1cc(C(F)(F)F)ccc1F` [Example 39, 1-(tert-butyl)-3-(1-(2-fluoro-5-(trifluoromethyl)benzyl)-2-oxo-1,2,3,4-tetrahydroquinolin-6-yl)urea], below 100 nM.
Under `Cc1cccc(CN2C(=O)COc3cc(NC(=O)NC(C)(C)C)ccc32)c1` [Example 40, 1-(tert-butyl)-3-(4-(3-methylbenzyl)-3-oxo-3,4-dihydro-2H-benzo[b][1,4]oxazin-7-yl)urea] stands below 100 nM; under `C[C@H]1Oc2cc(NC(=O)NC(C)(C)C)ccc2N(Cc2ccccc2)C1=O` [Example 41, (R)-1-(4-benzyl-2-methyl-3-oxo-3,4-dihydro-2H-benzo[b][1,4]oxazin-7-yl)-3-(tert-butyl)urea], below 100 nM; under `C[C@@H]1Oc2cc(NC(=O)NC(C)(C)C)ccc2N(Cc2ccccc2)C1=O` [Example 42, (S)-1-(4-benzyl-2-methyl-3-oxo-3,4-dihydro-2H-benzo[b][1,4]oxazin-7-yl)-3-(tert-butyl)urea], below 100 nM.
For the molecule `C[C@@H](c1ccccc1)N1C(=O)N(C)Cc2cc(NC(=O)NC(C)(C)C)ccc21` [Example 45, 3-tert-butyl-1-{3-methyl-2-oxo-1-[(1S)-1-phenylethyl]-4H-quinazolin-6-yl}urea], the IC50 was below 100 nM.
For `C[C@H](c1ccccc1)N1C(=O)N(C)Cc2cc(NC(=O)NC(C)(C)C)ccc21` [Example 45A, 3-tert-butyl-1-{3-methyl-2-oxo-1-[(1R)-1-phenylethyl]-4H-quinazolin-6-yl}urea] the value was above 1000 nM; for `C[C@@H](c1cccc(Cl)c1)N1C(=O)N(C)Cc2cc(NC(=O)NC(C)(C)C)ccc21` [Example 46], below 100 nM; for `CN1Cc2cc(NC(=O)NC(C)(C)C)ccc2N(Cc2cccc(Cl)c2)C1=O` [Example 47, 1-(tert-butyl)-3-(1-(3-chlorobenzyl)-3-methyl-2-oxo-1,2,3,4-tetrahydroquinazolin-6-yl)urea], below 100 nM.
Under `Cc1cccc(CN2C(=O)CCc3cc(NC(=O)NC(C)(C)C)ccc32)c1F` [Example 48, 1-(tert-butyl)-3-(1-(2-fluoro-3-methylbenzyl)-2-oxo-1,2,3,4-tetrahydroquinolin-6-yl)urea] stands below 100 nM.
`Cc1ccc(F)c(CN2C(=O)CCc3cc(NC(=O)NC(C)(C)C)ccc32)c1` [Example 49, 1-(tert-butyl)-3-(1-(2-fluoro-5-methylbenzyl)-2-oxo-1,2,3,4-tetrahydroquinolin-6-yl)urea]: the concentration for half-maximal inhibition (IC50) was below 100 nM.
Under `CC(C)(C)NC(=O)Nc1ccc2c(c1)OCC(=O)N2Cc1cccc(C(F)(F)F)c1` [Example 50, 1-(tert-butyl)-3-(3-oxo-4-(3-(trifluoromethyl)benzyl)-3,4-dihydro-2H-benzo[b][1,4]oxazin-7-yl)urea] stands below 100 nM; under `CC(C)(C)NC(=O)Nc1ccc2c(c1)CC(CO)C(=O)N2Cc1ccccc1` (stereo not drawn) [Example 51, 1-(1-benzyl-3-(hydroxymethyl)-2-oxo-1,2,3,4-tetrahydroquinolin-6-yl)-3-(tert-butyl)urea], above 1000 nM; under `C[C@H](c1cccc(Cl)c1)N1C(=O)N(C)Cc2cc(NC(=O)NC(C)(C)C)ccc21` [Example 52], above 1000 nM.
Under `Cc1cccc(CN2C(=O)CCc3cc(NC(=O)NC(C)(C)C)ccc32)c1C#N` [Example 53, 3-tert-butyl-1-{1-[(2-cyano-3-methylphenyl)methyl]-2-oxo-3,4-dihydroquinolin-6-yl}urea] stands 100 to 1000 nM; under `CC(C)(C)NC(=O)Nc1ccc2c(c1)CCC(=O)N2Cc1cccc(C(F)(F)F)c1F` [Example 54, 1-(tert-butyl)-3-(1-(2-fluoro-3-(trifluoromethyl)benzyl)-2-oxo-1,2,3,4-tetrahydroquinolin-6-yl)urea], below 100 nM; under `CC(C)(C)NC(=O)Nc1ccc2c(c1)CCC(=O)N2Cc1cc(C(F)(F)F)ccc1C#N` [Example 55, 3-tert-butyl-1-(1-{[2-cyano-5-(trifluoromethyl)phenyl]methyl}-2-oxo-3,4-dihydroquinolin-6-yl) urea], below 100 nM.
For `Cc1cccc([C@H](C)N2C(=O)CCc3cc(NC(=O)NC(C)(C)C)ccc32)c1` [Example 56, (S)-1-(tert-butyl)-3-(2-oxo-1-(1-(m-tolyl)ethyl)-1,2,3,4-tetrahydroquinolin-6-yl)urea] the value was below 100 nM.
Consider `Cc1cccc([C@H](C)N2C(=O)COc3cc(NC(=O)NC(C)(C)C)ccc32)c1` [Example 57, (S)-1-(tert-butyl)-3-(3-oxo-4-(1-(m-tolyl)ethyl)-3,4-dihydro-2H-benzo[b][1,4]oxazin-7-yl)urea], for which the IC50 is below 100 nM.

A word on the IC50: it is the midpoint of a concentration-inhibition curve.
